Reference: patent publication US11198704B2, “Butane-tetraol-based amphiphiles and uses thereof” (Industry-University Cooperation Foundation Hanyang …, priority 2016, dated 2021)
“Also recorded” adds a separate entry of the source.

Tests used:
[1] = Hydrodynamic radius and size distribution of micelles by dynamic light scattering (DLS); assay type: physicochemical; settings: detergent 1.0% by weight
Procedure: A method of measuring the radius of the micelles is not particularly limited, but the radius of the micelles may be measured using methods well known in the related art. For example, the radius of the micelles may be measured through a dynamic light scattering (DLS) experiment.
(§1) Specifically, the critical micelle concentration (CMC) was measured using diphenylhexatriene (DPH) as a fluorescent stain, and the hydrodynamic radii (Rh) of the micelles formed by each preparation (1.0% by weight) were measured through a dynamic light scattering (DLS) experiment.

[2] = Critical micelle concentration (CMC) using diphenylhexatriene (DPH) fluorescent stain; assay type: physicochemical; settings: aqueous solution
Procedure: A method of measuring the CMC is not particularly limited, but the CMC may be measured using methods well known in the related art. For example, the CMC may be measured by a fluorescence staining method using diphenylhexatriene (DPH).
as §1

[3] = biological target: T1, human β2 adrenergic receptor (β2AR) (Homo sapiens, UniProt P07550); assay: Structural stability of β2AR, [3H]-dihydroalprenolol ([3H]-DHA) binding; assay type: biochemical; settings: BTMs without CHS, DDM with CHS; for initial ligand-binding characteristics of β2AR ([3H]-DHA): CMC+0.2% by weight
T1 construct: made in house
Procedure: An experiment for determining the structural stability of a human β2 adrenergic receptor (β2AR) and a G-protein-coupled receptor (GPCR) by BTMs was performed. That is, a receptor purified with DDM was diluted with a buffer solution containing only each of the BTMs without cholesteryl hemisuccinate (CHS) or a buffer solution containing DDM with CHS. The final compound concentration was CMC+0.2% by weight, and the ligand-binding characteristics of the receptor were determined through [^3H]-dihydroalprenolol ([^3H]-DHA) binding.
Specifically, a radioactive ligand binding test was performed using the following method. β2AR was purified with 0.1% DDM (D. M. Rosenbaum et al., Science, 2007, 318, 1266-1273.), and finally concentrated to approximately 10 mg/mL (approximately 200 μM). A master binding mixture containing 10 nM [^3H]-dihydroalprenolol (DHA) supplemented with 0.5 mg/mL BSA in each 0.2% amphiphilic compound (DDM or BTMs) was prepared using the β2AR purified with DDM. The ligand-binding characteristics of the receptor purified with the amphiphilic compound at 0.2 pmol was monitored at regular intervals while the receptor was incubated at room temperature for 3 days. The ligand-binding characteristics of the receptor were determined using a water-soluble radioactive ligand binding assay as will be described below. The receptor purified with DDM or each of the BTMs was incubated with 10 nM [^3H]-DHA at room temperature for 30 minutes. The mixture was loaded on a G-50 column, and flow-through fractions were collected using 1 mL of a binding buffer (20 mM HEPES (pH 7.5) supplemented with 0.5 mg/mL BSA and 20×CMC of each amphiphilic compound, 100 mM NaCl). Then, the G-50 column was filled with 15 mL of a scintillation fluid. Receptor-bound [^3H]-DHA was counted using a scintillation counter (Beckman). Non-specific binding of [^3H]-DHA was determined by adding 2 μM of alprenolol (Sigma) in the same binding reaction. The binding affinity of [^3H]-DHA was plotted on a column graph, and each experiment was performed in triplicate.

[4] = biological target: T2, melibiose permease (MelB) (Salmonella typhimurium, UniProt P30878); assay: MelB extraction and thermostability, SDS-PAGE and Western Blotting of the dissolved protein; settings: 55° C., 90 minutes; detergent 1.5% by weight
T2 construct: made in house; host or cells: E. coli DW2
Procedure: The MelB protein was extracted from a membrane using BTM-C11s or DDM, and the amount and structure of the extracted protein were analyzed through SDS-PAGE and Western Blotting. A concentration of the amphiphilic compound used was 1.5% by weight, and the protein was extracted at four temperatures (0, 45, 55, and 65° C.), and incubated at the same temperature for 90 minutes. Thereafter, an amount of the protein remaining dissolved in an aqueous solution was measured to evaluate two types of performance: protein extraction efficiency and stabilization ability of the compound. The amount of the protein extracted and stabilized with each of the amphiphilic molecules is expressed as a relative value (%) of the entire amount of proteins contained in a membrane sample which is not treated with the amphiphilic molecules.
Specifically, Salmonella typhimurium melibiose permease (MelBSt) having a 10-His tag at the C-terminus thereof was expressed in E. coli DW2 cells (AmelB and AlacZY) using a plasmid pK95ΔAHB/WT MelBSt/CH10. Cell growth and membrane preparation were performed according to the method disclosed in the article by A. S. Ethayathulla et al. (Nat. Commun. 2014, 5, 3009). A protein assay was performed using a Micro BCA kit (Thermo Scientific, Rockford, Ill.). An effect of the isomers (A-BTM-C11, B-BTM-C11, and M-BTM-C11) of the BTM-C11s or DDM on the MelBSt stability was evaluated using the protocol disclosed in P. S. Chae et al. (Nat. Methods 2010, 7, 1003-1008). A membrane sample (having a final protein concentration of 10 mg/mL) containing MelBSt was incubated at four temperatures (0, 45, 55, and 65° C.) for 90 minutes in a solubilizing buffer (20 mM sodium phosphate, pH 7.5, 200 mM NaCl, 10% glycerol, and 20 mM melibiose) containing 1.5% (w/v) DDM or the BTM-C11 isomers. To remove insoluble matter, the sample was ultracentrifuged at 355,590 g at 4° C. for 45 minutes using a Beckman Optima™ MAX ultracentrifuge equipped with a TLA-100 rotor. The dissolved fraction was separated by 16% SDS-PAGE, and then immunoblotted with a Penta-His-HRP antibody (Qiagen, Germantown, Md.). The membrane fraction containing 20 μg of untreated proteins was used to represent the entire MelB, and the treated samples were loaded in each well at the same volume. MelBSt was measured by an ImageQuant LAS 4000 Biomolecular imager (GE Health Care Life Sciences) using a SuperSignal West Pico chemiluminescent substrate.

[5] = tested on: uric acid-xanthine/H+ symporter (UapA), UapAG411VΔ1-11 GFP fusion; assay: Thermal stability of UapA solubilized by detergent, fluorescence size exclusion chromatography (FSEC); set-up: species or system Aspergillus nidulans; settings: detergent 1.0% by weight; 40° C. for 10 minutes
Procedure: A UapA protein is a uric acid-xanthine/H^+ symporter in Aspergillus nidulans. An experiment for measuring structural stability of a uric acid-xanthine/H^+ symporter (UapA) by BTMs in an aqueous solution was performed. The structural stability of UapA was measured using fluorescence size exclusion chromatography (FSEC).
Specifically, UapAG411VΔ1-11 (hereinafter referred to as ‘UapA’) was expressed as a GFP fusion protein in a Saccharomyces cerevisiae FGY217 strain, and divided into a sample buffer (20 mM Tris (pH 7.5), 150 mM NaCl, 0.03% DDM, and 0.6 mM xanthine). This procedure was performed according to the method disclosed in the article by J. Leung et al. (Mol. Membr. Biol. 2013, 30, 32-42). Membranes containing UapA were re-suspended in PBS (10 mM imidazole pH 8.0, 150 mM NaCl, and 10% glycerol), and a concentration of proteins was measured. […] 100 μL aliquots were removed from the respective tubes, and fluorescence reading on each sample was performed before and after the aliquots were ultracentrifuged at 150,000 g for 10 minutes to remove insoluble matter. Water-soluble fractions remaining under each condition were subjected to fluorescence SEC (FSEC) using a Superose 6 column (GE Healthcare) equilibrated with a buffer containing a proper preparation (DDM or BTM).

T1 sequence (P07550 whole entry): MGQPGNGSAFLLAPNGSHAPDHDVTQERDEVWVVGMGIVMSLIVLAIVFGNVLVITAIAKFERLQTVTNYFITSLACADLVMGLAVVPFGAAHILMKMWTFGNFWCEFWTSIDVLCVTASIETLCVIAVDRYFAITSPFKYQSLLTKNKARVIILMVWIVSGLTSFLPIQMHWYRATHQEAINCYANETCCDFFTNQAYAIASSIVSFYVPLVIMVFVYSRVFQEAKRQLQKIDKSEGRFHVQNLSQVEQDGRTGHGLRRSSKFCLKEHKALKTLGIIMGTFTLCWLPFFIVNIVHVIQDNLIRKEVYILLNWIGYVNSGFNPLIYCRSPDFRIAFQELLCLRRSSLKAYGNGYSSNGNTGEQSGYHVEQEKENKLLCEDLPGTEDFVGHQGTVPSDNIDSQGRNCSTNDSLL
T2 sequence (P30878 whole entry): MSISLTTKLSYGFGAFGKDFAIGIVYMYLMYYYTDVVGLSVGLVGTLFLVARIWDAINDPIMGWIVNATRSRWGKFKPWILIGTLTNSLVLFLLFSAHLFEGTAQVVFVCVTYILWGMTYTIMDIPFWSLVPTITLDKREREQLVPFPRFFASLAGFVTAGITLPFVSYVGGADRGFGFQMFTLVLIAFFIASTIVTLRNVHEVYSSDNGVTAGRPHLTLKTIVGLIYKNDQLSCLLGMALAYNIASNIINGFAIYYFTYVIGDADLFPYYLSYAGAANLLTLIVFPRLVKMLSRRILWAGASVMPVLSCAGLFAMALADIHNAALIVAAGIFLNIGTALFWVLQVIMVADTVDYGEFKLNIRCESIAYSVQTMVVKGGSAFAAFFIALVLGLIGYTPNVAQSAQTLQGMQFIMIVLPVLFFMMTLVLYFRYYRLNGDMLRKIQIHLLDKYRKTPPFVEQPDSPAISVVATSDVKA

Rh (nm), hydrodynamic radius of micelles [1] | CMC [2] | CMC (% by weight) [2] | SMILES | initial ligand-binding characteristics of β2AR ([3H]-DHA) [3] | remaining ligand-binding ability of β2AR, % of initial ([3]; after 3 days of incubation at room temperature) | effect on the long-term stability of the receptor (β2AR) ([3]; room temperature, 3 days) | amount of MelB protein remaining dissolved in aqueous solution [4] | UapA monodisperse peak in FSEC (extraction and structural stability) [5]
2.9 ± 0.04 nm | ~0.021 mM | ~0.0022 % by weight | CCCCCCCCCOC[C@H](O[C@@H]1OC(CO)[C@@H](O[C@H]2OC(CO)[C@@H](O)C(O)C2O)C(O)C1O)[C@H](COCCCCCCCCC)O[C@@H]1OC(CO)[C@@H](O[C@H]2OC(CO)[C@@H](O)C(O)C2O)C(O)C1O (stereo partly drawn) [A-BTM-C9] | – | – | – | – | –
3.2 ± 0.07 nm | ~0.011 mM | ~0.0012 % by weight | CCCCCCCCCCOC[C@H](O[C@@H]1OC(CO)[C@@H](O[C@H]2OC(CO)[C@@H](O)C(O)C2O)C(O)C1O)[C@H](COCCCCCCCCCC)O[C@@H]1OC(CO)[C@@H](O[C@H]2OC(CO)[C@@H](O)C(O)C2O)C(O)C1O (stereo partly drawn) [A-BTM-C10] | – | – | – | – | –
3.5 ± 0.03 nm | ~0.007 mM | ~0.0008 % by weight | CCCCCCCCCCCOC[C@H](O[C@@H]1OC(CO)[C@@H](O[C@H]2OC(CO)[C@@H](O)C(O)C2O)C(O)C1O)[C@H](COCCCCCCCCCCC)O[C@@H]1OC(CO)[C@@H](O[C@H]2OC(CO)[C@@H](O)C(O)C2O)C(O)C1O (stereo partly drawn) [A-BTM-C11] | slight decrease in the ligand-binding characteristics | – | – | – | –
3.1 ± 0.07 nm | ~0.013 mM | ~0.0014 % by weight | CCCCCCCCCCOC[C@@H](O[C@@H]1OC(CO)[C@@H](O[C@H]2OC(CO)[C@@H](O)C(O)C2O)C(O)C1O)[C@@H](COCCCCCCCCCC)O[C@@H]1OC(CO)[C@@H](O[C@H]2OC(CO)[C@@H](O)C(O)C2O)C(O)C1O (stereo partly drawn) [B-BTM-C10] | – | – | – | – | –
3.5 ± 0.08 nm | ~0.008 mM | ~0.0009 % by weight | CCCCCCCCCCCOC[C@@H](O[C@@H]1OC(CO)[C@@H](O[C@H]2OC(CO)[C@@H](O)C(O)C2O)C(O)C1O)[C@@H](COCCCCCCCCCCC)O[C@@H]1OC(CO)[C@@H](O[C@H]2OC(CO)[C@@H](O)C(O)C2O)C(O)C1O (stereo partly drawn) [B-BTM-C11] | – | – | – | – | –
3.2 ± 0.05 nm | ~0.017 mM | ~0.0017 % by weight | CCCCCCCCCOC[C@H](O[C@@H]1OC(CO)[C@@H](O[C@H]2OC(CO)[C@@H](O)C(O)C2O)C(O)C1O)[C@@H](COCCCCCCCCC)O[C@@H]1OC(CO)[C@@H](O[C@H]2OC(CO)[C@@H](O)C(O)C2O)C(O)C1O (stereo partly drawn) [M-BTM-C9] | – | – | – | – | –
3.5 ± 0.07 nm | ~0.008 mM | ~0.0009 % by weight | CCCCCCCCCCOC[C@H](O[C@@H]1OC(CO)[C@@H](O[C@H]2OC(CO)[C@@H](O)C(O)C2O)C(O)C1O)[C@@H](COCCCCCCCCCC)O[C@@H]1OC(CO)[C@@H](O[C@H]2OC(CO)[C@@H](O)C(O)C2O)C(O)C1O (stereo partly drawn) [M-BTM-C10] | – | – | – | – | –

SMILES | Rh (nm), hydrodynamic radius of micelles [1] | CMC [2] | CMC (% by weight) [2] | initial ligand-binding characteristics of β2AR ([3H]-DHA) [3] | remaining ligand-binding ability of β2AR, % of initial ([3]; after 3 days of incubation at room temperature) | effect on the long-term stability of the receptor (β2AR) ([3]; room temperature, 3 days) | amount of MelB protein remaining dissolved in aqueous solution [4] | UapA monodisperse peak in FSEC (extraction and structural stability) [5]
CCCCCCCCCCCOC[C@H](O[C@@H]1OC(CO)[C@@H](O[C@H]2OC(CO)[C@@H](O)C(O)C2O)C(O)C1O)[C@@H](COCCCCCCCCCCC)O[C@@H]1OC(CO)[C@@H](O[C@H]2OC(CO)[C@@H](O)C(O)C2O)C(O)C1O (stereo partly drawn) [M-BTM-C11] | 4.7 ± 0.27 nm | ~0.006 mM | ~0.0006 % by weight | slight decrease in the ligand-binding characteristics | approximately 70% | much more superior effect in maintaining the long-term stability of β2AR, compared to DDM | complete solubility | significant increase in the recovery of monodisperse peaks; also recorded: most excellent effect
